Measured values reported in ChEMBL document CHEMBL1201862, “PubChem BioAssay data set” (2004).
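Growth conditions: 96-well plates. Treatment: test compound, 48 hours, 5 concentrations. Analysis: linear interpolation between bracketing concentrations; unreached endpoints set to highest concentration. Here, GI50 denotes the concentration required for 50% inhibition of growth.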 Active and inactive are the calls of the source. No stated cut-off is given here; in the data, active = GI50 up to about 1.1 µM and inactive = higher.

What was measured:
Experiment in all cases: NCI-60 cell line screen, 48 h
[1] = system: BT-549
[2] = system: CAKI-1
[3] = system: HT-29
[4] = system: MDA-MB-435
[5] = system: SF-268
[6] = system: Malme-3M
[7] = system: PC-3
[8] = system: Hs-578T
[9] = system: UO-31
[10] = system: SF-295
[11] = system: 786-0
[12] = system: MDA-N
[13] = system: MCF7
[14] = system: TK-10
[15] = system: SN12C
[16] = system: OVCAR-8
[17] = system: SNB-19
[18] = system: COLO 205
[19] = system: SR
[20] = system: ACHN
[21] = system: SNB-75
[22] = system: NCI-H522
[23] = system: HCT-15
[24] = system: EKVX
[25] = system: RXF 393
[26] = system: HOP-62
[27] = system: UACC-62
[28] = system: K562
[29] = system: A498
[30] = system: NCI-H226
[31] = system: LOX IMVI
[32] = system: NCI-H460
[33] = system: MOLT-4
[34] = system: SK-MEL-28
[35] = system: HCT-116
[36] = system: MDA-MB-231
[37] = system: SK-OV-3
[38] = system: HOP-92
[39] = system: T47D
[40] = system: DU-145
[41] = system: IGROV-1
[42] = system: HL-60
[43] = system: OVCAR-5
[44] = system: OVCAR-4
[45] = system: SK-MEL-2
[46] = system: CCRF-CEM
[47] = system: UACC-257
[48] = system: RPMI-8226
[49] = system: NCI/ADR-RES
[50] = system: OVCAR-3
[51] = system: M14
[52] = system: KM12
[53] = system: SW-620
[54] = system: U-251
[55] = system: SF-539
[56] = system: SK-MEL-5
[57] = system: A549
[58] = system: NCI-H23
[59] = system: HCC 2998

With `CC(C)(CN)SCc1ccccc1` the GI50 [1] was > 100 µM (inactive), the GI50 [2] was > 100 µM (inactive) and the GI50 [3] was > 100 µM (inactive). For the same compound, the GI50 [4] was > 100 µM (inactive), the GI50 [5] was > 100 µM (inactive) and the GI50 [6] was > 100 µM (inactive). For the same compound, the GI50 [7] was > 100 µM (inactive), the GI50 [8] was > 100 µM (inactive) and the GI50 [9] was > 100 µM (inactive). For the same compound, the GI50 [10] was > 100 µM (inactive), the GI50 [11] was > 100 µM (inactive) and the GI50 [12] was > 100 µM (inactive). The GI50 [13] was > 100 µM (inactive), the GI50 [14] was > 100 µM (inactive) and the GI50 [15] was > 100 µM (inactive). The GI50 [16] was > 100 µM (inactive), the GI50 [17] was > 100 µM (inactive) and the GI50 [18] was > 100 µM (inactive). The GI50 [19] was > 100 µM (inactive), the GI50 [20] was > 100 µM (inactive) and the GI50 [21] was > 100 µM (inactive). For the same compound, the GI50 [22] was > 100 µM (inactive), the GI50 [23] was > 100 µM and the GI50 [24] was > 100 µM (inactive). For the same compound, the GI50 [25] was > 100 µM (inactive), the GI50 [26] was > 100 µM (inactive) and the GI50 [27] was > 100 µM (inactive). For the same compound, the GI50 [28] was > 100 µM (inactive), the GI50 [29] was > 100 µM (inactive) and the GI50 [30] was > 100 µM (inactive). The GI50 [31] was > 100 µM (inactive), the GI50 [32] was > 100 µM (inactive) and the GI50 [33] was > 100 µM (inactive). The GI50 [34] was > 100 µM (inactive), the GI50 [35] was > 100 µM (inactive) and the GI50 [36] was > 100 µM (inactive). The GI50 [37] was > 100 µM (inactive), the GI50 [38] was > 100 µM (inactive) and the GI50 [39] was > 100 µM (inactive). The GI50 [40] was > 100 µM (inactive), the GI50 [41] was > 100 µM (inactive) and the GI50 [42] was > 100 µM (inactive). The GI50 [43] was > 100 µM (inactive), the GI50 [44] was > 100 µM (inactive) and the GI50 [45] was > 100 µM (inactive). The GI50 [46] was > 100 µM (inactive), the GI50 [47] was 28.7 µM (inactive) and the GI50 [48] was > 100 µM (inactive). For the same compound, the GI50 [49] was > 100 µM (inactive), the GI50 [50] was > 100 µM (inactive) and the GI50 [51] was > 100 µM (inactive). For the same compound, the GI50 [52] was > 100 µM (inactive), the GI50 [53] was > 100 µM (inactive) and the GI50 [54] was > 100 µM (inactive). For the same compound, the GI50 [55] was > 100 µM (inactive), the GI50 [56] was > 100 µM (inactive) and the GI50 [57] was > 100 µM (inactive).

With `O=c1c(C(c2ccc(C(c3c(O)oc4cc(O)ccc4c3=O)c3c(O)oc4cc(O)ccc4c3=O)cc2)c2c(O)oc3cc(O)ccc3c2=O)c(O)oc2cc(O)ccc12` the GI50 [1] was > 100 µM (inactive), the GI50 [2] was > 100 µM (inactive) and the GI50 [3] was > 100 µM (inactive). The GI50 [4] was > 100 µM (inactive), the GI50 [5] was > 100 µM (inactive) and the GI50 [6] was > 100 µM (inactive). For the same compound, the GI50 [7] was > 100 µM (inactive), the GI50 [8] was > 100 µM (inactive) and the GI50 [9] was > 100 µM (inactive). The GI50 [10] was > 100 µM (inactive), the GI50 [58] was > 100 µM (inactive) and the GI50 [12] was > 100 µM (inactive). The GI50 [13] was > 100 µM (inactive), the GI50 [14] was > 100 µM (inactive) and the GI50 [15] was 93.1 µM (inactive). The GI50 [16] was > 100 µM (inactive), the GI50 [18] was 53.3 µM (inactive) and the GI50 [19] was > 100 µM (inactive). The GI50 [21] was > 100 µM (inactive), the GI50 [23] was > 100 µM and the GI50 [24] was > 100 µM (inactive). For the same compound, the GI50 [25] was > 100 µM (inactive), the GI50 [26] was > 100 µM (inactive) and the GI50 [27] was > 100 µM (inactive). For the same compound, the GI50 [28] was > 100 µM (inactive), the GI50 [29] was > 100 µM (inactive) and the GI50 [30] was > 100 µM (inactive). The GI50 [31] was > 100 µM (inactive), the GI50 [32] was > 100 µM (inactive) and the GI50 [33] was > 100 µM (inactive). For the same compound, the GI50 [34] was > 100 µM (inactive), the GI50 [35] was > 100 µM (inactive) and the GI50 [36] was > 100 µM (inactive). The GI50 [37] was > 100 µM (inactive), the GI50 [38] was > 100 µM (inactive) and the GI50 [39] was > 100 µM (inactive). The GI50 [40] was > 100 µM (inactive), the GI50 [41] was > 100 µM (inactive) and the GI50 [42] was 44.6 µM (inactive). The GI50 [43] was > 100 µM (inactive), the GI50 [44] was 93.1 µM (inactive) and the GI50 [59] was > 100 µM (inactive). For the same compound, the GI50 [45] was > 100 µM (inactive), the GI50 [46] was 53.2 µM (inactive) and the GI50 [47] was > 100 µM (inactive). For the same compound, the GI50 [49] was > 100 µM (inactive), the GI50 [50] was > 100 µM (inactive) and the GI50 [51] was > 100 µM (inactive). The GI50 [53] was > 100 µM (inactive), the GI50 [54] was > 100 µM (inactive) and the GI50 [55] was > 100 µM (inactive). The GI50 [56] was 48.6 µM (inactive) and the GI50 [57] was > 100 µM (inactive).

`COc1ccc(C=O)cc1OS(=O)(=O)C(F)(F)C(F)(F)C(F)(F)C(F)(F)F` was tested, and the GI50 [1] was 30.2 µM (inactive), the GI50 [2] was 40.3 µM (inactive) and the GI50 [3] was 29.9 µM (inactive). For the same compound, the GI50 [4] was 19.9 µM (inactive), the GI50 [5] was 26.5 µM (inactive) and the GI50 [6] was 23.4 µM (inactive). For the same compound, the GI50 [7] was 32.3 µM (inactive), the GI50 [8] was 22.6 µM (inactive) and the GI50 [9] was 22.8 µM (inactive). For the same compound, the GI50 [10] was 22.1 µM (inactive), the GI50 [11] was 31.6 µM (inactive) and the GI50 [58] was 32.1 µM (inactive). For the same compound, the GI50 [12] was 19 µM (inactive), the GI50 [13] was 26.1 µM (inactive) and the GI50 [14] was > 49.5 µM (inactive). For the same compound, the GI50 [15] was 42.1 µM (inactive), the GI50 [16] was 28.1 µM (inactive) and the GI50 [17] was 42.1 µM (inactive). The GI50 [18] was 24.5 µM (inactive), the GI50 [19] was 6.27 µM (inactive) and the GI50 [20] was 44.5 µM (inactive). The GI50 [21] was 31.2 µM (inactive), the GI50 [22] was 24.5 µM (inactive) and the GI50 [23] was 26.9 µM. For the same compound, the GI50 [24] was 33.3 µM (inactive), the GI50 [25] was 21.3 µM (inactive) and the GI50 [26] was 26.6 µM (inactive). For the same compound, the GI50 [27] was 21.4 µM (inactive), the GI50 [28] was 3.52 µM (inactive) and the GI50 [29] was 3.72 µM (inactive). For the same compound, the GI50 [30] was > 100 µM (inactive), the GI50 [31] was 15.2 µM (inactive) and the GI50 [32] was 27.2 µM (inactive). For the same compound, the GI50 [33] was 3.23 µM (inactive), the GI50 [34] was 24.4 µM (inactive) and the GI50 [35] was 27.2 µM (inactive). The GI50 [36] was 23.6 µM (inactive), the GI50 [37] was 30.4 µM (inactive) and the GI50 [38] was 13.2 µM (inactive). The GI50 [39] was 41.7 µM (inactive), the GI50 [40] was > 68.2 µM (inactive) and the GI50 [41] was 24.9 µM (inactive). For the same compound, the GI50 [42] was 8.75 µM (inactive), the GI50 [43] was 50.7 µM (inactive) and the GI50 [44] was 43.8 µM (inactive). For the same compound, the GI50 [45] was 17.1 µM (inactive), the GI50 [46] was 14.8 µM (inactive) and the GI50 [47] was 36.6 µM (inactive). The GI50 [48] was 21.8 µM (inactive), the GI50 [49] was 21 µM (inactive) and the GI50 [50] was 27 µM (inactive). The GI50 [51] was 28 µM (inactive), the GI50 [52] was 28.4 µM (inactive) and the GI50 [53] was 24.9 µM (inactive). For the same compound, the GI50 [54] was 22.9 µM (inactive), the GI50 [55] was 18.5 µM (inactive) and the GI50 [56] was 15.5 µM (inactive). For the same compound, the GI50 [57] was 48.4 µM (inactive).
